The record followed here is PMC10359453, “Mutational and structural analyses of UdgX: insights into the active site pocket architecture and its evolution” (Nucleic Acids Research, 2023).

What all share (test): X-ray crystal structure of complex
Common to all, as to format: binding

Assay [1] concerns the target T1, MsmUdgX (Mycolicibacterium smegmatis, UniProt A0QP43, H109S/R184A).
T1 construct: gene MSMEG_0265; N-terminal 6xHis tag (pET14b), expressed in E. coli Rosetta (DE3), Ni-NTA and Superdex-75 purified; 4Fe-4S protein
As to conditions: uracil excised from 5-mer ssDNA TTUTT, DNA backbone not modelled; active site; pH 7.0.

In assay [2] the target is T2, MsmUdgX (Mycolicibacterium smegmatis, UniProt A0QP43).
T2 construct: gene MSMEG_0265; N-terminal 6xHis tag (pET14b), expressed in E. coli Rosetta (DE3), Ni-NTA and Superdex-75 purified; 4Fe-4S protein
T2 sequence (A0QP43 1-209): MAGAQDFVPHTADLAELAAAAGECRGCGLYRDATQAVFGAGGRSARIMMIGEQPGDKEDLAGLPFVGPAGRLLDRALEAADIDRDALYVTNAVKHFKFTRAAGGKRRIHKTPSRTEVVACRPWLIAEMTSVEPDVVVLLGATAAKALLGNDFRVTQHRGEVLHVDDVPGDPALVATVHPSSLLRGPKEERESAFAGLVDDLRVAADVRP
As to conditions: uracil excised from 5-mer ssDNA TTUTT; active site; pH 7.0.

Assay [3] deals with T3, MsmUdgX (Mycolicibacterium smegmatis, UniProt A0QP43, H109Q).
T3 construct: gene MSMEG_0265; N-terminal 6xHis tag (pET14b), expressed in E. coli Rosetta (DE3), Ni-NTA and Superdex-75 purified; 4Fe-4S protein
As to conditions: uracil excised from 5-mer ssDNA TTUTT, DNA backbone not modelled; active site; pH 7.0.

The target in assay [4] is T4, MsmUdgX (Mycolicibacterium smegmatis, UniProt A0QP43, H109G).
T4 construct: gene MSMEG_0265; N-terminal 6xHis tag (pET14b), expressed in E. coli Rosetta (DE3), Ni-NTA and Superdex-75 purified; 4Fe-4S protein
The conditions noted are these: uracil excised from 5-mer ssDNA TTUTT, DNA backbone not modelled; active site; pH 7.0.

Assay [5] has as its target T5, MsmUdgX (Mycolicibacterium smegmatis, UniProt A0QP43, H109A).
T5 construct: gene MSMEG_0265; N-terminal 6xHis tag (pET14b), expressed in E. coli Rosetta (DE3), Ni-NTA and Superdex-75 purified; 4Fe-4S protein
The conditions noted are these: uracil excised from 5-mer ssDNA TTUTT, DNA backbone not modelled; active site; pH 7.0.

For assay [6], the target named is T6, MsmUdgX (Mycolicibacterium smegmatis, UniProt A0QP43, H109C).
T6 construct: gene MSMEG_0265; N-terminal 6xHis tag (pET14b), expressed in E. coli Rosetta (DE3), Ni-NTA and Superdex-75 purified; 4Fe-4S protein
The conditions noted are these: uracil excised from 5-mer ssDNA TTUTT, DNA backbone not modelled; active site; pH 7.0.

Assay [7] deals with T7, MsmUdgX (Mycolicibacterium smegmatis, UniProt A0QP43, H109K).
T7 construct: gene MSMEG_0265; N-terminal 6xHis tag (pET14b), expressed in E. coli Rosetta (DE3), Ni-NTA and Superdex-75 purified; 4Fe-4S protein
The conditions noted are these: uracil excised from 5-mer ssDNA TTUTT, DNA backbone not modelled; active site; pH 7.0.

T5 sequence (A0QP43 entry or part of it H109A): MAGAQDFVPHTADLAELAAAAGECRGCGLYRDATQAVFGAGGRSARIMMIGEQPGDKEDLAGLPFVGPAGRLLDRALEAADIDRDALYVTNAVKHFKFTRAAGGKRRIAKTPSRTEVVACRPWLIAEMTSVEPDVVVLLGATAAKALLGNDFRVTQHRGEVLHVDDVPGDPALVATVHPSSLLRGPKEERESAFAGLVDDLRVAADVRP
T4 sequence (A0QP43 entry or part of it H109G): as the sequence (A0QP43 entry or part of it H109A) above, with A109G counted along it
T3 sequence (A0QP43 entry or part of it H109Q): as the sequence (A0QP43 entry or part of it H109A) above, with A109Q counted along it
T1 sequence (A0QP43 entry or part of it H109S/R184A): as the sequence (A0QP43 entry or part of it H109A) above, with A109S, R184A counted along it
T7 sequence (A0QP43 entry or part of it H109K): as the sequence (A0QP43 entry or part of it H109A) above, with A109K counted along it
T6 sequence (A0QP43 entry or part of it H109C): as the sequence (A0QP43 entry or part of it H109A) above, with A109C counted along it

As for `O=c1cc[nH]c(=O)[nH]1` [uracil], the “X-ray crystal structure of complex” value is “H109S/R184A (orange, PDB ID: 8IIT)” in assay [1]; “Uracil bound in the active site of MsmUdgX, post its cleavage from the DNA backbone” in assay [2]; “H109Q (green, PDB ID: 8IIP)” in assay [3]; “H109G (cyan, PDB ID: 8IIL)” in assay [4]; “H109A (brown, PDB ID: 8IIG), mutants with uracil in the active sites cavity” in assay [5]; “H109C (magenta, PDB ID: 8III)” in assay [6]. For the same compound, the “X-ray crystal structure of complex” value in assay [7] is given as “Crystal structures of H109K (yellow, (PDB ID: 8IIN)”.
